Here are results for six compounds from patent US20210284668A1, “GOLD (I)-PHOSPHINE 1,2,3-TRIAZOLE DERIVATIVES WITH ANTIBIOTIC PROPERTIES” (Centre National de la Recherche Scientifique, priority 2018, published 2021).

One assay concerns S. aureus ATCC25923. Description: MIC by microdilution, S. aureus ATCC25923. Type of assay: cell-based, Staphylococcus aureus. As to conditions: S. aureus ATCC25923 (MecA negative, wild-type), Mueller-Hinton broth, in duplicate. Here is the method:
(§1) The antibacterial profile of each derivative was evaluated by the standard microdilution method for susceptibility testing on 16 different strains, following the guidelines of CLSI. The selected panel included: • S. aureus ATCC25923 (MecA negative, wild-type) • S. aureus ATCC29213 (MecA negative, wild-type) • S. aureus ATCC700699 (MecA positive, glycopeptide resistant) • S. aureus ST20131365 (MecA positive, glycopeptide resistant) • S. epidermidis ATCC14990 (MecA negative, wild-type) • S. epidermidis ATCC35984 (MecA positive) • S. epidermidis ST20140436 (MecA positive, glycopeptide resistant) • S. epidermidis ST20150446 (MecA positive, glycopeptide resistant) • E. faecalis JH2-2 (wild-type) • E. faecalis UCN41 (VanA positive, glycopeptide resistant) • E. faecalis V583 (VanB positive, glycopeptide resistant) • E. faecium ATCC19434T (wild-type) • E. faecium BM4147 (VanA positive, glycopeptide resistant) • E. faecium AUS0004 (VanB positive, glycopeptide resistant) • E. coli ATCC25922 (wild-type) • Clostridium difficile ATCC9689 (wild-type)
(§2) Both series issued from the SAR study were evaluated for their antibacterial activity on a panel of characterized strains obtained from the French National Reference Centers for Staphylococci (Lyon, Pr. Fréderique Laurent) and for Enterococci (Caen, Pr. Vincent Cattoir), respectively. As shown in the following tables, both series contain very active compounds on multi-resistant Gram-positive bacteria (Minimal Inhibitory Concentrations lower than comparator antibiotic ampicillin). Furthermore, a very important antibacterial effect has been shown too on a strain of Clostridium difficile, a Gram-positive, spore-forming, bacillus responsible for post-antibiotic diarrhoae.
(§3) The antibacterial activity of test compounds was evaluated on a selected panel of Gram-positive (4 Staphylococcus aureus, 4 Staphylococcus epidermidis, 3 Enterococcus faecalis, 3 Enterococcus faecium, 1 Clostridium difficile) and Gram-negative strains (1 Escherichia coli, 1 Klebsiella pneumoniae, 1 Pseudomonas aeruginosa, 1 Acinetacter baumannii) with known features of antibiotic resistance (from wild-type susceptibility to multi-drug resistance). The Minimal Inhibitory Concentration (MIC) of test compounds was determined in duplicate by the microdilution method in 96-well microplates with a final volume of 100 μL per well and Mueller-Hinton broth as the growth medium, as recommended by the CLSI (Clinical and Laboratory Standards Institute, document Mo7-A10, USA).

The next assay concerns S. aureus ATCC29213. Nature of the assay: MIC by microdilution, S. aureus ATCC29213. Type of assay: cell-based, Staphylococcus aureus. As to conditions: S. aureus ATCC29213 (MecA negative, wild-type), Mueller-Hinton broth, in duplicate. Here is the method: as §1, §2, §3
A further assay concerns S. aureus ATCC700699. Nature of the assay: MIC by microdilution, S. aureus ATCC700699. More on the design: unit not given here. It counts as cell-based, Staphylococcus aureus. To be noted: S. aureus ATCC700699 (MecA positive, glycopeptide resistant), in duplicate. Here is the method:
as §1, §2, §3

The subject of another assay is S. aureus ST20131365. Nature of the assay: MIC by microdilution, S. aureus ST20131365. Type of assay: cell-based, Staphylococcus aureus. As to conditions: S. aureus ST20131365 (MecA positive, glycopeptide resistant), in duplicate. How it is done:
as §1, §2, §3

The subject of another assay is S. epidermidis ATCC14990. Nature of the assay: MIC by microdilution, S. epidermidis ATCC14990. Type of assay: cell-based, Staphylococcus epidermidis. To be noted: S. epidermidis ATCC14990 (MecA negative, wild-type), in duplicate. How it is done:
as §1, §2, §3

Another assay has as its system E. faecalis JH2-2. Description: MIC by microdilution, E. faecalis JH2-2. It counts as cell-based, Enterococcus faecalis. More on the design: unit not given here. To be noted: E. faecalis JH2-2 (wild-type), in duplicate. How it is done: as §1, §2, §3
In a further assay the test system is E. faecalis UCN41. Description: MIC by microdilution, E. faecalis UCN41. Type of assay: cell-based, Enterococcus faecalis. Also on record: unit not given here. To be noted: E. faecalis UCN41 (VanA positive, glycopeptide resistant), in duplicate. How it is done: as §1, §2, §3
The subject of another assay is E. faecalis V583. Description: MIC by microdilution, E. faecalis V583. It counts as cell-based, Enterococcus faecalis. To be noted: E. faecalis V583 (VanB positive, glycopeptide resistant), in duplicate. Here is the method: as §1, §2, §3
A further assay deals with E. faecium ATCC19434T. Nature of the assay: MIC by microdilution, E. faecium ATCC19434T. It counts as cell-based, Enterococcus faecium. More on the design: unit not given here. To be noted: E. faecium ATCC19434T (wild-type), in duplicate. Here is the method: as §1, §2, §3
The next assay deals with E. faecium BM4147. Nature of the assay: MIC by microdilution, E. faecium BM4147. It counts as cell-based, Enterococcus faecium. More on the design: unit not given here. As to conditions: E. faecium BM4147 (VanA positive, glycopeptide resistant), in duplicate. Here is the method:
as §1, §2, §3

The next assay concerns E. faecium AUS0004. Nature of the assay: MIC by microdilution, E. faecium AUS0004. It counts as cell-based, Enterococcus faecium. To be noted: E. faecium AUS0004 (VanB positive, glycopeptide resistant), in duplicate. How it is done: as §1, §2, §3
A further assay concerns E. coli ATCC25922. Description: MIC by microdilution, E. coli ATCC25922. Type of assay: cell-based, Escherichia coli. To be noted: E. coli ATCC25922 (wild-type), in duplicate. Here is the method: as §1, §2, §3
Assay [1] concerns Clostridium difficile ATCC700057. Nature of the assay: MIC by microdilution, Clostridium difficile. Type of assay: cell-based. To be noted: strain ATCC70057 [sic] (Tables 1-2) / ATCC700057 (Tables 3-10), in duplicate.
Assay [2] concerns panel of Gram-positive and Gram-negative strains. Description: Antibacterial profile on the selected panel of strains. Type of assay: cell-based. As to conditions: summary of Tables 1-12. Here is the method:
as §1, §2, §3

For another assay, the system named is S. epidermidis ATCC35984. Description: MIC by microdilution, S. epidermidis ATCC35984. It counts as cell-based, Staphylococcus epidermidis. To be noted: S. epidermidis ATCC35984 (MecA positive), in duplicate. Here is the method:
as §1, §2, §3

Assay [3] deals with S. epidermidis ST20140436. Nature of the assay: MIC by microdilution, S. epidermidis ST20140436. To be noted: S. epidermidis ST20140436 (MecA positive, glycopeptide resistant), in duplicate. It counts as cell-based, Staphylococcus epidermidis. How it is done:
as §1, §2, §3

The test system of assay [4] is S. epidermidis ST20150446. Description: MIC by microdilution, S. epidermidis ST20150446. To be noted: S. epidermidis ST20150446 (MecA positive, glycopeptide resistant), in duplicate. It counts as cell-based, Staphylococcus epidermidis. Here is the method:
as §1, §2, §3

Several values for one entry are separate records, joined by “and”; a condition that tells them apart may be missing. Equal values may be shown once.

As for `CC[P+](CC)(CC)[Au-][c]1nn[nH]c1-c1ccc(C(=O)NC(C(=O)NC2C(=O)N3C2SC(C)(C)C3C(=O)O)c2ccccc2)cc1` (stereo not shown) [TMB22], the “Minimal Inhibitory Concentration (MIC)” value is 0.125 in the assay with S. aureus ATCC25923; 0.125 with S. aureus ATCC29213; 0.125 and 0.25 in the assay on S. aureus ATCC700699; 0.25 in the assay with S. aureus ST20131365; ≤0.06 with S. epidermidis ATCC14990; 0.5 in the assay with E. faecalis JH2-2. For the same compound, the “Minimal Inhibitory Concentration (MIC)” value in the assay with E. faecalis UCN41 is on record as 1; in the assay with E. faecalis V583 it was 0.5; with E. faecium ATCC19434T, 1; with E. faecium BM4147 it was 1; in the assay on E. faecium AUS0004, 1; in the assay on E. coli ATCC25922, >8. For the same compound, the “Minimal Inhibitory Concentration (MIC)” value in assay [1] is given as ≤0.06. Moreover, in assay [2], the “antimicrobial / antibacterial activity (in words)” value is “have antimicrobial activity”.

As to `O=C(N[C@@H](C(=O)O)c1ccccc1)OCc1cnn[nH]1` [TMB41], the “Minimal Inhibitory Concentration (MIC)” value with S. aureus ATCC25923, with S. aureus ATCC29213, in the assay with S. aureus ATCC700699, with S. aureus ST20131365, in the assay with S. epidermidis ATCC14990 and with S. epidermidis ATCC35984 was >8 in each case. The “Minimal Inhibitory Concentration (MIC)” value (in assay [3]; in assay [4]; in the assay with E. faecalis JH2-2; in the assay with E. faecalis UCN41; in the assay on E. faecalis V583; with E. faecium ATCC19434T) was >8 each time. Moreover, the “Minimal Inhibitory Concentration (MIC)” value (with E. faecium BM4147; in the assay with E. faecium AUS0004; in assay [1]) was >8 throughout. Besides, in assay [2], the “antimicrobial / antibacterial activity (in words)” value is on record as “do not show an antibacterial activity”.

`CC[P+](CC)(CC)[Au-][c]1nn[nH]c1CNC(=O)CCCC[C@@H]1SC[C@@H]2NC(=O)N[C@@H]21` [TMB42]: the “Minimal Inhibitory Concentration (MIC)” value is reported as 0.125 with S. aureus ATCC25923; 0.25 with S. aureus ATCC29213; 0.25 with S. aureus ATCC700699; 0.25 with S. aureus ST20131365; ≤0.06 in the assay on S. epidermidis ATCC14990; ≤0.06 in the assay with S. epidermidis ATCC35984. Moreover, the “Minimal Inhibitory Concentration (MIC)” value is reported as ≤0.06 in [3]; ≤0.06 in assay [4]; 0.25 with E. faecalis JH2-2; 1 in the assay with E. faecalis UCN41; 1 in the assay on E. faecalis V583; 0.25 with E. faecium ATCC19434T. The “Minimal Inhibitory Concentration (MIC)” value was determined as 0.5 in the assay with E. faecium BM4147, 0.5 with E. faecium AUS0004 and 0.25 in assay [1]. The “antimicrobial / antibacterial activity (in words)” value in assay [2] is listed as “have antimicrobial activity”.

As for `CC[P+](CC)(CC)[Au-][c]1nn[nH]c1-c1c(C)noc1C` [TMB43], the “Minimal Inhibitory Concentration (MIC)” value in the assay on S. aureus ATCC25923 is ≤0.06; in the assay with S. aureus ATCC29213 it was 0.125; in the assay with S. aureus ATCC700699, 0.125; with S. aureus ST20131365 it was 0.125; in the assay on S. epidermidis ATCC14990 it was ≤0.06; with S. epidermidis ATCC35984, ≤0.06. The “Minimal Inhibitory Concentration (MIC)” value in [3] is given as 0.125; in assay [4], ≤0.06; with E. faecalis JH2-2 it was 0.25; with E. faecalis UCN41, 0.25; in the assay on E. faecalis V583, 0.25; in the assay on E. faecium ATCC19434T it was 0.125. Also, the “Minimal Inhibitory Concentration (MIC)” value in the assay on E. faecium BM4147 is recorded as 0.125; with E. faecium AUS0004, 0.25; in [1], 0.25. In addition, the “antimicrobial / antibacterial activity (in words)” value in assay [2] is reported as “have antimicrobial activity”.

`CC[P+](CC)(CC)[Au-][c]1nn[nH]c1COC(=O)NC(C(=O)O)c1ccccc1` (stereo not shown) [TMB45]: the “Minimal Inhibitory Concentration (MIC)” value in the assay with S. aureus ATCC25923 is on record as 0.125; in the assay on S. aureus ATCC29213, 0.25; in the assay with S. aureus ATCC700699, 0.25; in the assay with S. aureus ST20131365, 0.25; in the assay with S. epidermidis ATCC14990, ≤0.06; with S. epidermidis ATCC35984 it was ≤0.06. For the same compound, the “Minimal Inhibitory Concentration (MIC)” value in assay [3] is ≤0.06; in [4], ≤0.06; in the assay on E. faecalis JH2-2, 0.5; in the assay with E. faecalis UCN41 it was 0.25; in the assay on E. faecalis V583 it was 0.5; in the assay with E. faecium ATCC19434T it was 0.25. In addition, the results for the “Minimal Inhibitory Concentration (MIC)” value (with E. faecium BM4147; in the assay with E. faecium AUS0004; in assay [1]) were 0.25, 0.5 and 0.125, respectively. The “antimicrobial / antibacterial activity (in words)” value in assay [2] is “have antimicrobial activity”.

Turning to `O=C(CCc1cnn[nH]1)N[C@@H](C(=O)O)c1ccccc1` [TMB46], the “Minimal Inhibitory Concentration (MIC)” value in the assay with S. aureus ATCC25923, in the assay on S. aureus ATCC29213, with S. aureus ATCC700699, in the assay with S. aureus ST20131365, with S. epidermidis ATCC14990 and in the assay on S. epidermidis ATCC35984 was >8 in each case. Moreover, the “Minimal Inhibitory Concentration (MIC)” value (in [3]; in [4]; in the assay on E. faecalis JH2-2; in the assay on E. faecalis UCN41; in the assay on E. faecalis V583; in the assay with E. faecium ATCC19434T) was >8 each time. The “Minimal Inhibitory Concentration (MIC)” value (in the assay with E. faecium BM4147; in the assay on E. faecium AUS0004; in [1]) was >8 each time. Besides, the “antimicrobial / antibacterial activity (in words)” value in assay [2] is listed as “do not show an antibacterial activity”.
